This note sets out measurements from the METLIN SMRT retention time set (Domingo-Almenara et al. 2019).

A short description of this data set: gradient 5% acetonitrile 3 min, to 50% in 2 min, to 85% in 15 min, held 3 min, 100 µL/min. Conditions: column: Zorbax Extend-C18 2.1 x 50 mm; eluents: water / acetonitrile, 0.1% formic acid. In a few lines:
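Pure standards were analyzed in mixtures of ~100 molecules using HPLC coupled to a quadrupole time-of-flight mass spectrometer, in both positive and negative ionization mode. Separation used a Zorbax Extend-C18 column (2.1 × 50 mm, 1.8 μm) at 100 μL/min, with water and acetonitrile each containing 0.1% formic acid. Dead and dwell volumes were 40 μL and 900 μL, and data were collected over 3 months. Retention time was read from computationally picked adduct peaks, each inspected manually.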
In the case of `CN(C)C(CNS(=O)(=O)c1ccc(Cl)cc1)c1ccccc1` (centres undefined), the RP-LC retention time is 652 s.

In the case of `Cc1ccc(NC(=O)c2cnc3c(c2)c(=O)n(C)c(=O)n3-c2ccccc2)c(F)c1`, the RP-LC retention time came to 887 s.

Regarding `COc1ccc(NC(=O)Cn2ccnc2-c2ccnc(N3CCCC3)c2)cc1OC`, the RP-LC retention time amounted to 573 s.

Take `O=C1[C@H]2CN(Cc3ccccc3)C[C@H]2C(=O)N1CCc1ccccc1`: the RP-LC retention time was found to be 713 s.

`COc1cc(=O)c(C(N)=O)nn1-c1ccc(C)cc1` displayed an RP-LC retention time of 612 s.

In turn, `CCn1nccc1-c1cccc(-c2noc(-c3ccc(OC)cc3C)n2)c1` returned an RP-LC retention time of 1300 s.

With `COc1ccc2nc(-n3nc(C)cc3NC(=O)c3ccc([N+](=O)[O-])o3)sc2c1`, the RP-LC retention time was 1220 s.

`CC(C)CNC(=O)c1nnn2c1COC(c1ccc(Br)cc1)C2` (centres undefined) had an RP-LC retention time of 973 s.

Molecule `COc1cc(-c2nc3ccc(Cl)cn3c2Nc2ccc3c(c2)OCCO3)ccc1O` gave an RP-LC retention time of 680 s.

In turn, `Cc1ccc(Cl)cc1NC(=O)N1CCC(OC2CCN(S(C)(=O)=O)CC2)CC1` yielded an RP-LC retention time of 801 s.

Take `O=C(Nc1cc(-c2ccsc2)no1)c1ccc(Cl)cc1`: the RP-LC retention time came out at 1010 s.

Turning to `COc1ccccc1CNC(=O)c1ccc2c(c1)NC(=O)C1CCCCN21` (centres undefined), the RP-LC retention time was 809 s.

With `Cc1ccc(C)c(NC(=O)C2CCN(S(=O)(=O)c3ccc4c(c3)sc(=O)n4C(C)C)CC2)c1`, the RP-LC retention time worked out at 1070 s.

`O=C(NC1CCCCC1N1C(=O)CSC1=O)c1ccc(=O)[nH]c1` (centres undefined) came in with an RP-LC retention time of 583 s.

`CO[C@@H]1[C@H](OC(=O)/C=C/C=C/C=C/C=C/C(=O)O)CC[C@]2(CO2)[C@H]1[C@@]1(C)O[C@@H]1CC=C(C)C` displayed an RP-LC retention time of 954 s.

In turn, `Cc1ccccc1OCC(=O)NC1CCN(Cc2c(C)noc2C)CC1` gave an RP-LC retention time of 615 s.

`O=C(Cc1ccccc1Cl)NC1CCN(c2ccc(=O)n(CC3CC3)n2)C1` (centres undefined) came in with an RP-LC retention time of 760 s.

Molecule `Cc1ccsc1C(=O)Nc1ccc2c(N3CCCCC3)ncnc2c1` had an RP-LC retention time of 686 s.

For the molecule `Cc1ccc(C2CC(=O)N(c3ccc(F)c(F)c3)C(=O)C2)cc1`, the RP-LC retention time worked out at 997 s.

Turning to `COC(=O)C(C)NC(=O)N1CCC2(CC1)Nc1cc(F)ccc1-n1cccc12` (centres undefined), the RP-LC retention time worked out at 865 s.

Turning to `CCOCCCNC(=O)N1CC(Oc2cccc(-c3nc(C)no3)c2)C1`, the RP-LC retention time came to 735 s.

As for `CC(C)N1CCN(c2ncc(C(=O)Nc3ccccc3)c(N)n2)CC1`, the RP-LC retention time stood at 591 s.

In turn, `OC(CN1CCCCC1)c1ccc(/C=C/c2ccc(Cl)cc2)cc1` (centres undefined) registered an RP-LC retention time of 766 s.

On to `Cc1nc(-c2cn(C(C)C)c3ncccc23)sc1C(=O)N(C)Cc1ccccc1`, for which the RP-LC retention time was found to be 1050 s.

`COc1ccc2c(CCNC(=O)c3ccc(F)cc3)c[nH]c2c1` yielded an RP-LC retention time of 778 s.

On to `CC(C)n1cnc(S(=O)(=O)N2CCC(C(=O)NCc3ccccc3Cl)CC2)c1`, for which the RP-LC retention time was 744 s.

In the case of `COc1ccc(C2CC(=O)c3cnn(-c4nc5ccccc5[nH]4)c3C2)c(OC)c1` (centres undefined), the RP-LC retention time stood at 649 s.

`CC(=O)Nc1ccc(-c2noc(C3CCCN(C(=O)CCc4c[nH]c5ccccc45)C3)n2)cc1` (centres undefined) yielded an RP-LC retention time of 798 s.

For `CC(C)Cn1cc(S(=O)(=O)Nc2ccccc2F)c2cccnc21`, the RP-LC retention time stood at 926 s.

The molecule `CCc1ccc(-n2nc(N3CCCC(C(=O)NCc4cccc(Br)c4)C3)ccc2=O)cc1` (centres undefined) came in with an RP-LC retention time of 991 s.

Consider `CCCN1C(=O)COc2ccc(-c3noc(-c4ccccc4C(F)(F)F)n3)cc21`, for which the RP-LC retention time amounted to 1230 s.

Take `CCCCN1CCN(C(=O)c2cn(-c3cc(N4CCSCC4)ncn3)cn2)CC1`: the RP-LC retention time was 639 s.

The molecule `O=C(NCCCN1CCc2ccccc2C1)c1noc2c1CCCC2` returned an RP-LC retention time of 659 s.

`CCC(=O)N1CCc2cc(N3CC(C(=O)N4CCN(C(C)C)CC4)CC3=O)ccc21` (centres undefined) registered an RP-LC retention time of 580 s.

In the case of `CCN1CCCC1CNC(=O)Cn1c(=O)c2cccn2c2ccc(F)cc21` (centres undefined), the RP-LC retention time was 614 s.

`O=C1OCC2=C1C(c1ccccc1)NC(=O)N2CC(=O)N1CCCCC1` (centres undefined): the RP-LC retention time came to 672 s.

The molecule `COc1cccc(NC(=O)N2CCN(c3cc(C)nc(Nc4ccc(C)cc4)n3)CC2)c1` displayed an RP-LC retention time of 687 s.

In the case of `CCCN1CCN(C(=O)C2=NN(c3ccc(C)cc3)c3ncccc3S2(=O)=O)CC1`, the RP-LC retention time is 643 s.

On to `COc1ccc(OC)c(CNC(=O)Cc2nnc(-c3ccccn3)o2)c1`, for which the RP-LC retention time stood at 687 s.

For the molecule `Cn1c(=O)c(N2CCN(C(=O)c3ccc(F)cc3F)CC2)nc2ccncc21`, the RP-LC retention time stood at 586 s.

`CCc1ccccc1S(=O)(=O)NCC(c1cccnc1)c1c[nH]c2ccccc12` (centres undefined) showed an RP-LC retention time of 706 s.

Molecule `COc1cccc(-c2nnc(Cc3nc(-c4ccc(Cl)cc4)no3)o2)c1` returned an RP-LC retention time of 1100 s.

As to `Cc1ccc(C(=O)N2C[C@@H](F)C[C@H]2C(=O)N2CCc3ccccc3C2)s1`, the RP-LC retention time turned out to be 800 s.

Take `CCN1C(=O)c2cccnc2Sc2cc(CNC(=O)c3ccc(C#N)cc3)ccc21`: the RP-LC retention time came out at 756 s.

For `O=C(NC1CCCC1)N1c2ccccc2CC1c1noc(C2CCOCC2)n1` (centres undefined), the RP-LC retention time came to 854 s.

`C=CCNC(=O)c1sc(Nc2cccc(C)n2)nc1C` came in with an RP-LC retention time of 697 s.

For `CC(C)CC(=O)N1CCC2(CC1)c1nccn1-c1ccccc1CN2C`, the RP-LC retention time came out at 580 s.

With `CC1CCN(S(=O)(=O)c2cccc(-c3nc(-c4ccccc4)no3)c2)CC1`, the RP-LC retention time stood at 1360 s.

Regarding `O=C(O)c1ccc(N2CCOCC2)c(NC(=O)c2ccc(Br)cc2)c1`, the RP-LC retention time amounted to 828 s.

Molecule `CC(C)NC(=O)c1ccc(OCC2CCN(C(=O)Cc3ccc(Cl)cc3)CC2)cc1` gave an RP-LC retention time of 927 s.

For the molecule `CCC1CN2C=NC(N3CCN(C(=O)Nc4cc(C)ccc4OC)CC3)=CC2=N1` (centres undefined), the RP-LC retention time turned out to be 658 s.

The molecule `CCn1ccc(-c2nc(-c3ccc4c(c3)nnn4CCN3CCCCC3)no2)n1` gave an RP-LC retention time of 623 s.

For the molecule `COC(=O)c1c(C)[nH]c(C(=O)N2CCC(CC(=O)NC3CCCCCC3)CC2)c1C`, the RP-LC retention time was 794 s.

With `O=C1CCCN1CCCNc1nc(C2CC2)nc2c1CCC2`, the RP-LC retention time is 581 s.

Consider `CCN(Cc1cccnc1)C(=O)CN(c1ccc(OC)nc1)S(=O)(=O)c1ccccc1C`, for which the RP-LC retention time came out at 734 s.

The molecule `CC(=O)N1CCc2cc(N3CC(C(=O)Nc4ccc(C)cc4)CC3=O)ccc21` (centres undefined) had an RP-LC retention time of 720 s.

`O=C(c1ccsc1)N1CCCC1c1nc(CCOCC2CCCC2)no1` (centres undefined) yielded an RP-LC retention time of 980 s.

Take `COc1cc2c(cc1OC)C(C(=O)NC1CCCCC1)C(c1cccnc1)N(C)C2=O` (centres undefined): the RP-LC retention time came to 994 s.

In turn, `Cc1ccc2[nH]c3c(c2c1)CCNC31C(=O)Nc2ccccc21` (centres undefined) yielded an RP-LC retention time of 643 s.

On to `CCCCNC(=O)C1Cc2ccccc2CN1S(=O)(=O)c1ccccc1` (centres undefined), for which the RP-LC retention time is 960 s.

Consider `C=CCn1c(C)c(CC(=O)Nc2ccc(F)cc2)c(=O)n2nc(-c3ccc(C)cc3)nc12`, for which the RP-LC retention time was determined as 945 s.

With `CCOc1cccc(CNC(=O)c2nnc(-c3ccc(S(=O)(=O)N(C)C)cc3)o2)c1`, the RP-LC retention time turned out to be 893 s.

Turning to `COc1cccc(N2CCN(c3ccc(-c4nc(-c5ccccc5)no4)cn3)CC2)c1`, the RP-LC retention time was 1410 s.

`Cc1nc(C2CCCN2Cc2ccc(C)s2)n[nH]1` (centres undefined) had an RP-LC retention time of 554 s.

For `O=S(=O)(c1ccc2nncn2c1)N(Cc1cccc(F)c1)c1cccc(F)c1`, the RP-LC retention time turned out to be 851 s.

The molecule `COc1ccc(-c2cc(OC)c3cc(NC(=O)c4cccs4)ccc3n2)cc1` registered an RP-LC retention time of 726 s.

On to `Cc1cc(C(=O)Nc2nc3ccc(S(=O)(=O)N(C)C)cc3s2)on1`, for which the RP-LC retention time was 740 s.

The molecule `O=C1NCCOCCCN(C(=O)Nc2ccc3c(c2)OCCO3)[C@H]2CCCC[C@@H]12` displayed an RP-LC retention time of 665 s.

With `COc1ccc(S(=O)(=O)NCc2ccc3c(c2)CCN3C(C)=O)cc1Cl`, the RP-LC retention time worked out at 779 s.

For `O=C(C1CCN(S(=O)(=O)c2ccc3[nH]c(=O)ccc3c2)CC1)N1CCN(c2ccccc2F)CC1`, the RP-LC retention time was determined as 754 s.

As to `CCCC(=O)Nc1ccc(CCc2nc3ccc(C(=O)NCC(C)C)cc3[nH]2)cc1`, the RP-LC retention time worked out at 646 s.

In turn, `Cc1noc(-c2ccc(OC3CN(C(=O)CC4CCCC4)C3)cc2)n1` gave an RP-LC retention time of 906 s.

In turn, `CCCS(=O)(=O)N1CC(=O)N(c2ccc(F)cc2C)C(C)(C(=O)NC2CCCCC2)C1` (centres undefined) had an RP-LC retention time of 925 s.

Turning to `O=C(Cn1nc(C(=O)N2CCCC2)c2ccccc21)NCc1ccc(F)cc1`, the RP-LC retention time was 780 s.

`O=C(Cn1nc2c3ccc(Cl)cc3ncn2c1=O)NCc1ccccc1` gave an RP-LC retention time of 716 s.

In turn, `O=C(NCCCO)C1CCCN(c2ccc(Sc3ccc(Br)cc3)nn2)C1` (centres undefined) came in with an RP-LC retention time of 704 s.

As for `O=C(Cn1nc2c3ccccc3ncn2c1=O)Nc1ccc(F)cc1F`, the RP-LC retention time turned out to be 668 s.

`CCN1C(=O)c2cccnc2Sc2cc(NC(=O)COc3ccc(F)cc3)ccc21` gave an RP-LC retention time of 872 s.

In the case of `CCn1cc(S(=O)(=O)NCc2ccc(F)cc2Cl)c2cccnc21`, the RP-LC retention time turned out to be 855 s.
